In patent US20130045239A1, “Method for Modulating the Pharmacodynamic Effect of Orally Administered Guanylate Cyclase Receptor Agonists” (Ironwood Pharmaceuticals, Inc., priority 2009, published 2013):
Marks after values point to notes of the source that are not given here. Positions of bridges follow the written chain, without caps; N, C: chain ends. Residues, ends and D or L forms follow the SMILES beside them.

How the values were obtained:
Type in all cases: in vivo, human
[1] = tested on: healthy volunteers; test: Linaclotide food effect study: pharmacodynamic effect on bowel habits under fed vs fasted conditions
Method: The randomized, open-label, two-period, two-sequence, crossover trial of oral linaclotide in healthy volunteers tested under fasted or fed conditions summarized herein was undertaken to determine if linaclotide is susceptible to a food effect. The study consisted of 4 stages: an 8-day to 15-day Screening Stage, two 15- to 16-day Crossover Periods (1 and 2), and a 21-day Washout Stage which was to occur between Crossover Periods 1 and 2. The doses tested in this study were 300 ug and a 1-day dose of 3000 ug at the end of Crossover Periods 1 and 2.
The study consisted of 4 stages: an 8-day to 15-day Screening Stage which was to take place at home and determine eligibility, two 15- to 16-day stages (Crossover Periods 1 and 2) which were to take place in a Phase 1 unit, and a 21-day Washout Stage which was to take place at home and occur between Crossover Periods 1 and 2. The individual study Stages are detailed below.
Eligible subjects were entered into the Phase 1 unit and were randomized to 1 of 2 Treatment Sequences. Sequence 1 (Fed-Fasted): During Crossover Period 1, linaclotide was to be administered immediately after a high-fat breakfast (the fed condition); during Crossover Period 2, linaclotide was to be administered after a 10-hour fast (the fasted condition). Sequence 2 (Fasted-Fed): During Crossover Period 1, linaclotide was to be administered under the fasted condition; during Crossover Period 2, linaclotide was to be administered under the fed condition.
Crossover Period 1 lasted for 15 days and Crossover Period 2 started on Day 35, immediately after the 21-day Washout Stage, and lasted for 16 days. Subjects were to record their bowel habits in their BHD and ingest their meals at the time determined by their randomization sequence. At a specified time on each day, the information in the BHD was to be reviewed by the site staff to insure appropriate completion.
(§1) During the Pretreatment Phase of each Crossover Period, subjects were not to receive study drug. On Day 8 of Crossover Period 1 and Day 43 of Crossover Period 2, subjects started the Treatment Phase and were to receive 300 ug linaclotide once daily for a total of 7 days. On Day 14 and 15 of Crossover Period 1, blood was to be drawn to assay for linaclotide and its active metabolite. After the study procedures were completed on Day 15, subjects were discharged home with instructions to follow the same outpatient diet that they followed during the Screening Stage and to return to the Phase 1 unit on Day 35 for Crossover Period 2. On Day 50 of Crossover Period 2, subjects were to receive a single oral dose of 3000 ug linaclotide and were discharged from the Phase 1 unit on Day 51. After subjects received the 3000 ug dose, blood was to be drawn on Day 50 and 51 to assay for linaclotide and linaclotide metabolites.
Linaclotide was to be administered at the same time each morning with 240 cc (8 oz) of water; food was to be withheld for approximately 4 hr after dosing, and additional water was to be withheld from 1 hour before linaclotide administration until 1 hour after dosing. Under the fed condition, subjects were required to start and complete a high-fat breakfast during the 30 minutes before linaclotide administration. Under the fasted condition, linaclotide was to be administered following an overnight fast.
All meals and meal times were standardized during Crossover Periods 1 and 2 with the total daily calorie, fat, and fiber intake the same for each diet condition (fed and fasted). The daily quantity of these nutrients was based on the “United States Department of Agriculture (USDA) Dietary Recommendations for Americans.” Each subject received approximately 2000 total calories per day.
Linaclotide, 300 ug, oral gelatin capsule. Linaclotide, 3000 ug (5 oral gelatin capsules of 600 ug linaclotide each), single dose.
The primary endpoint was the change from Pretreatment Phase to Treatment Phase for each Crossover Period in stool consistency on the BSFS scale. […]

[2] = Linaclotide food effect study: plasma levels of linaclotide and its metabolite; details: for Cmax / Tmax: human, plasma, po, 3000 ug, single oral dose 3000 ug, fasted
Method: as §1
Blood samples were to be collected at 0 hour (prior to dosing) and 0.5, 1, 2, 3, 4, 6 and 24 hours post dose on Day 14 of Crossover Period 1 and on Day 50 of Crossover Period 2, for determination of the following PK parameters for linaclotide and a metabolite of linaclotide (CCEYCCNPACTGC (SEQ ID NO: 10)) (if systemic levels of linaclotide and or the metabolite are detected): maximum observed plasma concentration (Cmax), time to maximum concentration (Tmax), area under the plasma concentration time curve (AUC0-t), area under the plasma concentration time curve extrapolated to infinity (AUC0-∞), clearance relative to bioavailability (CL/F), apparent volume of distribution (Vd/F), apparent terminal half life (t1/2).

[3] = Linaclotide food effect study: 24-hour stool recovery; details: following 7 days of dosing at 300 ug per day, both fed and fasted conditions; predominately as a major linaclotide metabolite
Method: As for the 24-hour stool results, approximately 3 percent of a single dose of linaclotide was recovered on average following 7 days of dosing at 300 ug per day under both fed and fasted conditions. The recovery was predominately in the form of a major linaclotide metabolite.

[4] = 300 ug once daily, Fasted, last 4 days of treatment
[5] = 300 ug once daily, Fasted, over 7 days of treatment
[6] = 300 ug once daily, Fed, last 4 days of treatment
[7] = 300 ug once daily, Fed, over 7 days of treatment
[8] = 300 ug once daily, last 4 days of treatment
[9] = 300 ug once daily, over 7 days of treatment

Question: What does the source list for C[C@@H]1NC(=O)[C@@H]2CCCN2C(=O)[C@H](CC(N)=O)NC(=O)[C@@H]2CSSC[C@H](N)C(=O)N[C@H]3CSSC[C@H](NC1=O)C(=O)N[C@@H]([C@@H](C)O)C(=O)NCC(=O)N[C@H](C(=O)N[C@@H](Cc1ccc(O)cc1)C(=O)O)CSSC[C@H](NC(=O)[C@H](Cc1ccc(O)cc1)NC(=O)[C@H](CCC(=O)O)NC3=O)C(=O)N2 [Linaclotide, Cys Cys Glu Tyr Cys Cys Asn Pro Ala Cys Thr Gly Cys Tyr] (H-CCEYCCNPACTGCY-OH; disulfide 1-6, 2-10, 5-13)?
Answer: CSBM, Change from Pretreatment Mean (SEM) [1, 4]: 0.39 (0.293); SBM, Change from Pretreatment Mean (SEM) [1, 4]: 0.72 (0.419); BSFS Score, Change from Pretreatment Mean (SEM) ([1]; 300 ug once daily, Fasted, last 4 days of treatment (Sensitivity Analysis)): 1.97 (0.174); BSFS Score, Change from Pretreatment Mean (SEM) [1, 5]: 1.84 (0.177); CSBM, Change from Pretreatment Mean (SEM) [1, 5]: 1.00 (0.443); SBM, Change from Pretreatment Mean (SEM) [1, 5]: 1.50 (0.487); Straining Score, Change from Pretreatment Mean (SEM) [1, 5]: −0.17 (0.057); CSBM, Change from Pretreatment Mean (SEM) [1, 6]: 1.00 (0.647); SBM, Change from Pretreatment Mean (SEM) [1, 6]: 2.28 (0.704); BSFS Score, Change from Pretreatment Mean (SEM) ([1]; 300 ug once daily, Fed, last 4 days of treatment (Sensitivity Analysis)): 2.36 (0.230); BSFS Score, Change from Pretreatment Mean (SEM) [1, 7]: 2.45 (0.159); CSBM, Change from Pretreatment Mean (SEM) [1, 7]: 4.06 (1.181); SBM, Change from Pretreatment Mean (SEM) [1, 7]: 5.94 (1.503); Straining Score, Change from Pretreatment Mean (SEM) [1, 7]: −0.16 (0.064); CSBM, Difference Mean and 90 percent CI Fed-Fasted Difference [1, 8]: 0.61 (−0.49, 1.71); SBM, Difference Mean and 90 percent CI Fed-Fasted Difference [1, 8]: 1.56 (0.60, 2.51); BSFS Score, Difference Mean and 90 percent CI Fed-Fasted Difference ([1]; 300 ug once daily, last 4 days of treatment (Sensitivity Analysis)): 0.38 (−0.09, 0.86); BSFS Score, Difference Mean and 90% CI Fed-Fasted Difference [1, 9]: 0.61 (0.25, 0.98)^c; CSBM, Difference Mean and 90% CI Fed-Fasted Difference [1, 9]: 3.06 (0.90, 5.21); SBM, Difference Mean and 90% CI Fed-Fasted Difference [1, 9]: 4.44 (2.22, 6.67); Straining Score, Difference Mean and 90% CI Fed-Fasted Difference [1, 9]: 0.01 (−0.12, 0.14); Equivalence of fasted versus fed condition on change from pretreatment BSFS Scores (primary endpoint analysis) ([1]; 300 ug, 7 days of treatment, 90 percent CI against equivalence margins of ±0.6125): did not demonstrate equivalence; Equivalence of fed versus fasted condition on BSFS Score (Sensitivity Analysis) ([1]; 300 ug, last 4 days of treatment, 90 percent CI against equivalence margins of ±0.6125): did not fall within the equivalence margins; Cmax ([2]; subject 001012): 0.735 ng/mL; Tmax ([2]; subject 001012): 2 h; Tmax ([2]; subject 001019): 0.5 h; Cmax ([2]; subject 001019 (single measurable sample, at LLOQ)): 0.212 ng/mL; Recovery of a single dose in 24-hour stool, on average [3]: approximately 3%

Question: For “CCEYCCNPACTGC (Synthetically generated peptide) [linaclotide metabolite, a metabolite of linaclotide]”, which “Plasma level of linaclotide metabolite” value ([2]; 300 ug linaclotide oral for 7 days of treatment, all subjects, no quantifiable levels, limit of detection=2.0 ng/ml) is on record?
Answer: < 2.0 ng/mL

Question: What about the Metabolite in plasma ([2]; after linaclotide dosing (300 ug and 3000 ug), any subject) of the same compound?
Answer: No metabolite (SEQ ID NO: 10) was detected
